Reference: patent US10294202B2, “Pyrrolidinones as herbicides” (FMC Corporation, priority 2013, dated 2019)

Key:
Assay in all cases: Test A pre-/postemergence herbicide test
[1] = system: pigweed; format: in vivo, Amaranthus retroflexus; details: for Pigweed plant response rating: Preemergence, visual rating on 0 to 100 scale (0 no effect, 100 complete control)
Text: (§1) Seeds of plant species selected from bamyardgrass (Echinochloa crus-galli), kochia (Kochia scoparia), ragweed (common ragweed, Ambrosia elatior), ryegrass, Italian (Italian ryegrass, Lolium multiflorum), crabgrass, large (large crabgrass Digitaria sanguinalis), giant foxtail (Setaria faberii), morningglory (Ipomoea spp.), pigweed (Amaranthus retroflexus), velvetleaf (Abutilon theophrasti), wheat (Triticum aestivum), and corn (Zea mays) were planted into a blend of loam soil and sand and treated preemergence with a directed soil spray using test chemicals formulated in a non-phytotoxic solvent mixture which included a surfactant. At the same time, plants selected from these crop and weed species and also blackgrass (Alopecurus myosuroides), and galium (catchweed bedstraw, Galium aparine) were planted in pots containing the same blend of loam soil and sand and treated with postemergence applications of test chemicals formulated in the same manner. Plants ranged in height from 2 to 10 cm and were in the one- to two-leaf stage for the postemergence treatment. Treated plants and untreated controls were maintained in a greenhouse for approximately 10 days, after which time all treated plants were compared to untreated controls and visually evaluated for injury. Plant response ratings, summarized in Table A, are based on a 0 to 100 scale where 0 is no effect and 100 is complete control. A dash (-) response means no test result.

[2] = system: velvetleaf; format: in vivo, Abutilon theophrasti; details: for Velvetleaf plant response rating: Preemergence, visual rating on 0 to 100 scale (0 no effect, 100 complete control)
Text: as §1

[3] = system: wheat; format: in vivo, Triticum aestivum; details: for Wheat plant response rating: Preemergence, visual rating on 0 to 100 scale (0 no effect, 100 complete control)
Text: as §1

[4] = system: crabgrass, large; format: in vivo, Digitaria sanguinalis; details: for Crabgrass, Large plant response rating: Preemergence, visual rating on 0 to 100 scale (0 no effect, 100 complete control)
Text: as §1

[5] = system: giant foxtail; format: in vivo, Setaria faberii; details: for Foxtail, Giant plant response rating: Preemergence, visual rating on 0 to 100 scale (0 no effect, 100 complete control)
Text: as §1

[6] = system: corn; format: in vivo, Zea mays; details: for Corn plant response rating: Preemergence, visual rating on 0 to 100 scale (0 no effect, 100 complete control)
Text: as §1

[7] = system: barnyardgrass; format: in vivo, Echinochloa crus-galli; details: for Barnyardgrass plant response rating: Preemergence, visual rating on 0 to 100 scale (0 no effect, 100 complete control)
Text: as §1

[8] = system: morningglory; format: in vivo, Ipomoea spp.; details: for Morningglory plant response rating: Preemergence, visual rating on 0 to 100 scale (0 no effect, 100 complete control)
Text: as §1

[9] = Postemergence, 125 g ai/ha, 0 to 100 scale, 0 no effect, 100 complete control
[10] = Postemergence, 500 g ai/ha, 0 to 100 scale (0 no effect, 100 complete control)
[11] = preemergence, 500 g ai/ha, 0 to 100 scale
[12] = preemergence, 500 g ai/ha, 0 to 100 scale (0 no effect, 100 complete control)
[13] = Postemergence, 1000 g ai/ha, 0 to 100 scale (0 no effect, 100 complete control)
[14] = preemergence, 1000 g ai/ha, 0 to 100 scale

## CC1NC(=O)C(C(=O)Nc2ccccc2C(F)(F)F)C1c1ccc(F)c(F)c1 (mixture of isomers) [Compound 9]
[1]; [9]
  Plant response rating, Pigweed: 0
[1]; [10]
  Plant response rating, Pigweed: 0
[1]; 125 g ai/ha
  Pigweed plant response rating: 0
[1]; [11]
  Plant response rating, Pigweed: 0
[2]; [9]
  Plant response rating, Velvetleaf: 0
[2]; [10]
  Plant response rating, Velvetleaf: 0
[2]; 125 g ai/ha
  Velvetleaf plant response rating: 0
[2]; [11]
  Plant response rating, Velvetleaf: 0
[3]; [9]
  Plant response rating, Wheat: 0
[3]; [10]
  Plant response rating, Wheat: 0
[3]; 125 g ai/ha
  Wheat plant response rating: 0
[3]; [11]
  Plant response rating, Wheat: 0
[4]; [9]
  Plant response rating, Crabgrass, Large: 40
[4]; [10]
  Plant response rating, Crabgrass, Large: 70
[4]; 125 g ai/ha
  Crabgrass, Large plant response rating: 80
[4]; [11]
  Plant response rating, Crabgrass, Large: 90
[5]; [9]
  Plant response rating, Foxtail, Giant: 0
[5]; [10]
  Plant response rating, Foxtail, Giant: 70
[5]; 125 g ai/ha
  Foxtail, Giant plant response rating: 70
[5]; [11]
  Plant response rating, Foxtail, Giant: 90
[6]; [9]
  Plant response rating, Corn: 0
[6]; [10]
  Plant response rating, Corn: 0
[6]; 125 g ai/ha
  Corn plant response rating: 0
[6]; [11]
  Plant response rating, Corn: 0
[7]; [9]
  Plant response rating, Barnyardgrass: 30
[7]; [10]
  Plant response rating, Barnyardgrass: 50
[7]; 125 g ai/ha
  Barnyardgrass plant response rating: 20
[7]; [12]
  Plant response rating, Barnyardgrass: 60
[8]; [9]
  Plant response rating, Morningglory: 0
[8]; [10]
  Plant response rating, Morningglory: 0
[8]; 125 g ai/ha
  Morningglory plant response rating: 0
[8]; [11]
  Plant response rating, Morningglory: 0

## O=C1NCC(c2ccc(F)c(F)c2)C1C(=O)Nc1cccc(C(F)(F)F)c1 (racemic) [Compound 13]
[1]; [9]
  Plant response rating, Pigweed: 0
[1]; [10]
  Plant response rating, Pigweed: 0
[1]; 125 g ai/ha
  Pigweed plant response rating: 0
[1]; [11]
  Plant response rating, Pigweed: 0
[2]; [9]
  Plant response rating, Velvetleaf: 0
[2]; [10]
  Plant response rating, Velvetleaf: 0
[2]; 125 g ai/ha
  Velvetleaf plant response rating: 0
[2]; [11]
  Plant response rating, Velvetleaf: 0
[3]; [9]
  Plant response rating, Wheat: 0
[3]; [10]
  Plant response rating, Wheat: 0
[3]; 125 g ai/ha
  Wheat plant response rating: 0
[3]; [11]
  Plant response rating, Wheat: 0
[4]; [9]
  Plant response rating, Crabgrass, Large: 0
[4]; [10]
  Plant response rating, Crabgrass, Large: 60
[4]; 125 g ai/ha
  Crabgrass, Large plant response rating: 50
[4]; [11]
  Plant response rating, Crabgrass, Large: 80
[5]; [9]
  Plant response rating, Foxtail, Giant: 0
[5]; [10]
  Plant response rating, Foxtail, Giant: 0
[5]; 125 g ai/ha
  Foxtail, Giant plant response rating: 0
[5]; [11]
  Plant response rating, Foxtail, Giant: 30
[6]; [9]
  Plant response rating, Corn: 0
[6]; [10]
  Plant response rating, Corn: 0
[6]; 125 g ai/ha
  Corn plant response rating: 0
[6]; [11]
  Plant response rating, Corn: 0
[7]; [9]
  Plant response rating, Barnyardgrass: 0
[7]; [10]
  Plant response rating, Barnyardgrass: 30
[7]; 125 g ai/ha
  Barnyardgrass plant response rating: 0
[7]; [12]
  Plant response rating, Barnyardgrass: 50
[8]; [9]
  Plant response rating, Morningglory: 0
[8]; [10]
  Plant response rating, Morningglory: 0
[8]; 125 g ai/ha
  Morningglory plant response rating: 0
[8]; [11]
  Plant response rating, Morningglory: 0

## O=C1NCC(c2ccccc2F)C1C(=O)Nc1ccccc1F (racemic) [Compound 85]
[1]; [9]
  Plant response rating, Pigweed: 0
[1]; [10]
  Plant response rating, Pigweed: 0
[1]; 125 g ai/ha
  Pigweed plant response rating: 0
[1]; [11]
  Plant response rating, Pigweed: 0
[2]; [9]
  Plant response rating, Velvetleaf: 0
[2]; [10]
  Plant response rating, Velvetleaf: 0
[2]; 125 g ai/ha
  Velvetleaf plant response rating: 0
[2]; [11]
  Plant response rating, Velvetleaf: 0
[3]; [9]
  Plant response rating, Wheat: 0
[3]; [10]
  Plant response rating, Wheat: 0
[3]; 125 g ai/ha
  Wheat plant response rating: 0
[3]; [11]
  Plant response rating, Wheat: 0
[4]; [9]
  Plant response rating, Crabgrass, Large: 0
[4]; [10]
  Plant response rating, Crabgrass, Large: 50
[4]; 125 g ai/ha
  Crabgrass, Large plant response rating: 30
[4]; [11]
  Plant response rating, Crabgrass, Large: 80
[5]; [9]
  Plant response rating, Foxtail, Giant: 0
[5]; [10]
  Plant response rating, Foxtail, Giant: 0
[5]; 125 g ai/ha
  Foxtail, Giant plant response rating: 0
[5]; [11]
  Plant response rating, Foxtail, Giant: 50
[6]; [9]
  Plant response rating, Corn: 0
[6]; [10]
  Plant response rating, Corn: 0
[6]; 125 g ai/ha
  Corn plant response rating: 0
[6]; [11]
  Plant response rating, Corn: 0
[7]; [9]
  Plant response rating, Barnyardgrass: 0
[7]; [10]
  Plant response rating, Barnyardgrass: 20
[7]; 125 g ai/ha
  Barnyardgrass plant response rating: 0
[7]; [12]
  Plant response rating, Barnyardgrass: 30
[8]; [9]
  Plant response rating, Morningglory: 0
[8]; [10]
  Plant response rating, Morningglory: 0
[8]; 125 g ai/ha
  Morningglory plant response rating: 0
[8]; [11]
  Plant response rating, Morningglory: 0

## O=C1NCC(c2ccccc2Cl)C1C(=O)Nc1ccccc1F (racemic) [Compound 88]
[1]; [9]
  Plant response rating, Pigweed: 0
[1]; [10]
  Plant response rating, Pigweed: 0
[1]; 125 g ai/ha
  Pigweed plant response rating: 0
[1]; [11]
  Plant response rating, Pigweed: 30
[2]; [9]
  Plant response rating, Velvetleaf: 0
[2]; [10]
  Plant response rating, Velvetleaf: 0
[2]; 125 g ai/ha
  Velvetleaf plant response rating: 0
[2]; [11]
  Plant response rating, Velvetleaf: 0
[3]; [9]
  Plant response rating, Wheat: 0
[3]; [10]
  Plant response rating, Wheat: 0
[3]; 125 g ai/ha
  Wheat plant response rating: 0
[3]; [11]
  Plant response rating, Wheat: 0
[4]; [9]
  Plant response rating, Crabgrass, Large: 0
[4]; [10]
  Plant response rating, Crabgrass, Large: 60
[4]; 125 g ai/ha
  Crabgrass, Large plant response rating: 40
[4]; [11]
  Plant response rating, Crabgrass, Large: 80
[5]; [9]
  Plant response rating, Foxtail, Giant: 0
[5]; [10]
  Plant response rating, Foxtail, Giant: 0
[5]; 125 g ai/ha
  Foxtail, Giant plant response rating: 0
[5]; [11]
  Plant response rating, Foxtail, Giant: 30
[6]; [9]
  Plant response rating, Corn: 0
[6]; [10]
  Plant response rating, Corn: 0
[6]; 125 g ai/ha
  Corn plant response rating: 0
[6]; [11]
  Plant response rating, Corn: 0
[7]; [9]
  Plant response rating, Barnyardgrass: 0
[7]; [10]
  Plant response rating, Barnyardgrass: 40
[7]; 125 g ai/ha
  Barnyardgrass plant response rating: 0
[7]; [12]
  Plant response rating, Barnyardgrass: 50
[8]; [9]
  Plant response rating, Morningglory: 0
[8]; [10]
  Plant response rating, Morningglory: 0
[8]; 125 g ai/ha
  Morningglory plant response rating: 0
[8]; [11]
  Plant response rating, Morningglory: 0

## O=C1NCC(c2ccc(Cl)cc2Cl)C1C(=O)Nc1ccccc1F (racemic) [Compound 91]
[1]; [9]
  Plant response rating, Pigweed: 0
[1]; [10]
  Plant response rating, Pigweed: 0
[1]; 125 g ai/ha
  Pigweed plant response rating: 0
[1]; [11]
  Plant response rating, Pigweed: 0
[2]; [9]
  Plant response rating, Velvetleaf: 0
[2]; [10]
  Plant response rating, Velvetleaf: 0
[2]; 125 g ai/ha
  Velvetleaf plant response rating: 0
[2]; [11]
  Plant response rating, Velvetleaf: 0
[3]; [9]
  Plant response rating, Wheat: 0
[3]; [10]
  Plant response rating, Wheat: 0
[3]; 125 g ai/ha
  Wheat plant response rating: 0
[3]; [11]
  Plant response rating, Wheat: 0
[4]; [9]
  Plant response rating, Crabgrass, Large: 30
[4]; [10]
  Plant response rating, Crabgrass, Large: 50
[4]; 125 g ai/ha
  Crabgrass, Large plant response rating: 40
[4]; [11]
  Plant response rating, Crabgrass, Large: 60
[5]; [9]
  Plant response rating, Foxtail, Giant: 0
[5]; [10]
  Plant response rating, Foxtail, Giant: 20
[5]; 125 g ai/ha
  Foxtail, Giant plant response rating: 0
[5]; [11]
  Plant response rating, Foxtail, Giant: 40
[6]; [9]
  Plant response rating, Corn: 0
[6]; [10]
  Plant response rating, Corn: 0
[6]; 125 g ai/ha
  Corn plant response rating: 0
[6]; [11]
  Plant response rating, Corn: 0
[7]; [9]
  Plant response rating, Barnyardgrass: 0
[7]; [10]
  Plant response rating, Barnyardgrass: 20
[7]; 125 g ai/ha
  Barnyardgrass plant response rating: 0
[7]; [12]
  Plant response rating, Barnyardgrass: 20
[8]; [9]
  Plant response rating, Morningglory: 0
[8]; [10]
  Plant response rating, Morningglory: 0
[8]; 125 g ai/ha
  Morningglory plant response rating: 0
[8]; [11]
  Plant response rating, Morningglory: 0

## Cn1ccnc1C1CNC(=O)C1C(=O)Nc1cccc(F)c1F (racemic) [Compound 252]
[1]; [13]
  Plant response rating, Pigweed: 0
[2]; [13]
  Plant response rating, Velvetleaf: 0
[2]; [14]
  Plant response rating, Velvetleaf: 0
[3]; [13]
  Plant response rating, Wheat: 0
[3]; [14]
  Plant response rating, Wheat: 0
[4]; [13]
  Plant response rating, Crabgrass, Large: 0
[4]; [14]
  Plant response rating, Crabgrass, Large: 40
[5]; [13]
  Plant response rating, Foxtail, Giant: 0
[5]; [14]
  Plant response rating, Foxtail, Giant: 20
[6]; [13]
  Plant response rating, Corn: 0
[6]; [14]
  Plant response rating, Corn: 0
[7]; [13]
  Plant response rating, Barnyardgrass: 0
[7]; preemergence, 1000 g ai/ha, 0 to 100 scale (0 no effect, 100 complete control)
  Plant response rating, Barnyardgrass: 20
[8]; [13]
  Plant response rating, Morningglory: 0
[8]; [14]
  Plant response rating, Morningglory: 0
